# Measurements as given in ChEMBL document CHEMBL4177730, “Rational modification of semaxanib and sunitinib for developing a tumor growth inhibitor targeting ATP binding site of tyrosine kinase” (2018).
# Active and inactive are the calls of the source. The calls are words filed in the database; no cut-off is given here.
# Key:
# [1] = test system: M14; assay: Growth inhibition of human M14 cells at 10 uM after 48 hrs by sulforhodamine B assay; assay type: functional, cell-based
# [2] = test system: K562; assay: Growth inhibition of human K562 cells at 10 uM after 48 hrs by sulforhodamine B assay; assay type: functional, cell-based
# [3] = test system: NCI-H522; assay: Growth inhibition of human NCI-H522 cells after 48 hrs by sulforhodamine B assay; assay type: functional; conditions: NCI-H522, 48 h
# [4] = test system: BT-549; assay: Growth inhibition of human BT549 cells after 48 hrs by sulforhodamine B assay; assay type: functional; conditions: BT-549, 48 h
# [5] = test system: PC-3; assay: Growth inhibition of human PC3 cells at 10 uM after 48 hrs by sulforhodamine B assay; assay type: functional, cell-based
# [6] = test system: UACC-62; assay: Growth inhibition of human UACC62 cells at 10 uM after 48 hrs by sulforhodamine B assay; assay type: functional, cell-based
# [7] = test system: SN12C; assay: Growth inhibition of human SN12C cells at 10 uM after 48 hrs by sulforhodamine B assay; assay type: functional, cell-based
# [8] = test system: COLO 205; assay: Growth inhibition of human COLO205 cells after 48 hrs by sulforhodamine B assay; assay type: functional; conditions: COLO 205, 48 h
# [9] = test system: A498; assay: Growth inhibition of human A498 cells after 48 hrs by sulforhodamine B assay; assay type: functional; conditions: A498, 48 h
# [10] = test system: NCI-H322M; assay: Growth inhibition of human NCI-H322M cells after 48 hrs by sulforhodamine B assay; assay type: functional
# [11] = test system: IGROV-1; assay: Growth inhibition of human IGROV1 cells at 10 uM after 48 hrs by sulforhodamine B assay; assay type: functional, cell-based
# [12] = test system: UO-31; assay: Growth inhibition of human UO31 cells after 48 hrs by sulforhodamine B assay; assay type: functional; conditions: UO-31, 48 h
# [13] = test system: MDA-MB-231; assay: Growth inhibition of human MDA-MB-231 cells at 10 uM after 48 hrs by sulforhodamine B assay; assay type: functional, cell-based
# [14] = test system: RPMI-8226; assay: Growth inhibition of human RPMI8226 cells at 10 uM after 48 hrs by sulforhodamine B assay; assay type: functional, cell-based
# [15] = test system: OVCAR-4; assay: Growth inhibition of human OVCAR4 cells at 10 uM after 48 hrs by sulforhodamine B assay; assay type: functional, cell-based
# [16] = test system: CAKI-1; assay: Growth inhibition of human CAKI-1 cells at 10 uM after 48 hrs by sulforhodamine B assay; assay type: functional, cell-based
# [17] = test system: MOLT-4; assay: Growth inhibition of human MOLT4 cells after 48 hrs by sulforhodamine B assay; assay type: functional; conditions: MOLT-4, 48 h
# [18] = test system: MCF7; assay: Growth inhibition of human MCF7 cells after 48 hrs by sulforhodamine B assay; assay type: functional; conditions: MCF7, 48 h
# [19] = test system: CCRF-CEM; assay: Growth inhibition of human CCRF-CEM cells after 48 hrs by sulforhodamine B assay; assay type: functional
# [20] = test system: NCI/ADR-RES; assay: Growth inhibition of human NCI-ADR-RES cells at 10 uM after 48 hrs by sulforhodamine B assay; assay type: functional, cell-based
# [21] = test system: SK-MEL-2; assay: Growth inhibition of human SK-MEL-2 cells at 10 uM after 48 hrs by sulforhodamine B assay; assay type: functional, cell-based
# [22] = test system: A498; assay: Growth inhibition of human A498 cells at 10 uM after 48 hrs by sulforhodamine B assay; assay type: functional, cell-based
# [23] = test system: DU-145; assay: Growth inhibition of human DU145 cells after 48 hrs by sulforhodamine B assay; assay type: functional; conditions: DU-145, 48 h
# [24] = test system: NCI-H23; assay: Growth inhibition of human NCI-H23 cells after 48 hrs by sulforhodamine B assay; assay type: functional; conditions: NCI-H23, 48 h
# [25] = test system: Malme-3M; assay: Growth inhibition of human MALME-3M cells after 48 hrs by sulforhodamine B assay; assay type: functional
# [26] = test system: EKVX; assay: Growth inhibition of human EKVX cells after 48 hrs by sulforhodamine B assay; assay type: functional
# [27] = test system: SF-539; assay: Growth inhibition of human SF539 cells at 10 uM after 48 hrs by sulforhodamine B assay; assay type: functional, cell-based
# [28] = test system: M14; assay: Growth inhibition of human M14 cells after 48 hrs by sulforhodamine B assay; assay type: functional; conditions: M14, 48 h
# [29] = test system: RXF 393; assay: Growth inhibition of human RXF393 cells after 48 hrs by sulforhodamine B assay; assay type: functional; conditions: RXF 393, 48 h
# [30] = test system: LOX IMVI; assay: Growth inhibition of human LOXIMVI cells after 48 hrs by sulforhodamine B assay; assay type: functional
# [31] = test system: EKVX; assay: Growth inhibition of human EKVX cells at 10 uM after 48 hrs by sulforhodamine B assay; assay type: functional, cell-based
# [32] = test system: HL-60(TB); assay: Growth inhibition of human HL-60(TB) cells after 48 hrs by sulforhodamine B assay; assay type: functional; conditions: HL-60, 48 h
# [33] = test system: SNB-19; assay: Growth inhibition of human SNB19 cells at 10 uM after 48 hrs by sulforhodamine B assay; assay type: functional, cell-based
# [34] = test system: HOP-92; assay: Growth inhibition of human HOP92 cells at 10 uM after 48 hrs by sulforhodamine B assay; assay type: functional, cell-based
# [35] = test system: MDA-MB-231; assay: Growth inhibition of human MDA-MB-231 cells after 48 hrs by sulforhodamine B assay; assay type: functional; conditions: MDA-MB-231, 48 h
# [36] = test system: RXF 393; assay: Growth inhibition of human RXF393 cells at 10 uM after 48 hrs by sulforhodamine B assay; assay type: functional, cell-based
# [37] = test system: 786-0; assay: Growth inhibition of human 786-0 cells at 10 uM after 48 hrs by sulforhodamine B assay; assay type: functional, cell-based
# [38] = test system: MDA-MB-435; assay: Growth inhibition of human MDA-MB-435 cells at 10 uM after 48 hrs by sulforhodamine B assay; assay type: functional, cell-based
# [39] = test system: HOP-62; assay: Growth inhibition of human HOP62 cells at 10 uM after 48 hrs by sulforhodamine B assay; assay type: functional, cell-based
# [40] = read-out: LC50 (the source's name)
smiles,measurement,setting,value
O=C1/C(=C\c2cccn2Cc2ccccc2)c2ccccc2N1c1c(Cl)cccc1Cl,growth inhibition (GI),[1],Active
same,growth inhibition (GI),[2],Active
same,GI50,[3],> 100 µM
same,TGI,[3],> 100 µM
same,CC50,[3]; [40],> 100 µM
same,GI50,[4],> 100 µM
same,TGI,[4],> 100 µM
same,CC50,[4]; [40],> 100 µM
same,growth inhibition (GI),[5],Active
same,growth inhibition (GI),[6],Active
same,growth inhibition (GI),[7],Active
same,GI50,[8],1.04 µM
same,TGI,[8],9.33 µM
same,CC50,[8]; [40],> 100 µM
same,GI50,[9],> 100 µM
same,TGI,[9],> 100 µM
same,CC50,[9]; [40],> 100 µM
same,GI50,[10],14.8 µM
same,TGI,[10],> 100 µM
same,CC50,[10]; [40],> 100 µM
same,growth inhibition (GI),[11],Active
same,GI50,[12],3.16 µM
same,TGI,[12],> 100 µM
same,CC50,[12]; [40],> 100 µM
same,growth inhibition (GI),[13],Active
same,growth inhibition (GI),[14],Active
same,growth inhibition (GI),[15],Active
same,growth inhibition (GI),[16],Active
same,GI50,[17],> 100 µM
same,TGI,[17],> 100 µM
same,CC50,[17]; [40],> 100 µM
same,GI50,[18],0.035 µM
same,TGI,[18],> 100 µM
same,CC50,[18]; [40],> 100 µM
same,GI50,[19],> 100 µM
same,TGI,[19],> 100 µM
same,CC50,[19]; [40],> 100 µM
same,growth inhibition (GI),[20],Active
same,growth inhibition (GI),[21],Active
same,growth inhibition (GI),[22],Active
same,GI50,[23],> 100 µM
same,TGI,[23],> 100 µM
same,CC50,[23]; [40],> 100 µM
same,GI50,[24],39.8 µM
same,TGI,[24],> 100 µM
same,CC50,[24]; [40],> 100 µM
same,GI50,[25],3.16 µM
same,TGI,[25],> 100 µM
same,CC50,[25]; [40],> 100 µM
same,GI50,[26],0.41 µM
same,TGI,[26],7.94 µM
same,CC50,[26]; [40],> 100 µM
same,growth inhibition (GI),[27],Active
same,GI50,[28],> 100 µM
same,TGI,[28],> 100 µM
same,CC50,[28]; [40],> 100 µM
same,GI50,[29],> 100 µM
same,TGI,[29],> 100 µM
same,CC50,[29]; [40],> 100 µM
same,GI50,[30],> 100 µM
same,TGI,[30],> 100 µM
same,CC50,[30]; [40],> 100 µM
same,growth inhibition (GI),[31],Active
same,GI50,[32],> 100 µM
same,TGI,[32],> 100 µM
same,CC50,[32]; [40],> 100 µM
same,growth inhibition (GI),[33],Active
same,growth inhibition (GI),[34],Active
same,GI50,[35],5.88 µM
same,TGI,[35],> 100 µM
same,CC50,[35]; [40],> 100 µM
same,growth inhibition (GI),[36],Active
same,growth inhibition (GI),[37],Active
same,growth inhibition (GI),[38],Active
same,growth inhibition (GI),[39],Active
